Source: patent US6071707A, “Phosphotyrosine mimics and method for identifying and using same” (Boehringer Ingelheim Pharmaceuticals, Inc., priority 1997, dated 2000)

Tested on: anti-phosphotyrosine antibody (MAb PY-20)
Assay: Method for identifying phosphotyrosine mimics: competitive binding to anti-phosphotyrosine antibody (ELISA)
Set-up: species or system mouse
Details: ELISA criterion: 50% or greater inhibition of anti-phosphotyrosine binding 15 μg/ml; biotinylated peptide ECQ(pY)QPQP
Text: The present invention also provides a convenient and sensitive method for identifying phosphotyrosine mimics by utilizing anti-phosphotyrosine antibodies to rapidly screen large numbers of non-phosphorylated test compounds. Specifically, this method comprises the steps of:
(a) contacting a non-phosphorylated test compound and a phosphotyrosine-containing substance with an anti-phosphotyrosine antibody; and
(b) detecting the ability of the non-phosphorylated test compound to inhibit the binding of the anti-phosphotyrosine antibody to the phosphotyrosine-containing substance.
A 96 well microtiter plate (Pierce #15126, Reacti-Bind Streptvidin coated polystyrene) was coated with 100 μl of biotinylated peptide ECQ(pY)QPQP (MW=1367.5) at a concentration of 15 nM in Tris Buffered Saline (TBST) (10 mM Tris.HCl, pH 7.5, 100 mM NaCl, 0.1% Tween 20) for 45 minutes at room temperature. The microtiter plate was washed 4 times with TBST. MAb PY-20 (Zymed #03-7799) was pre incubated for 45 minutes at a 2× concentration of 0.078 μg/ml ([…]) with a 2× concentration of non-phosphorylated test compounds in TBST. 100 μl of test compound/antibody solution was added in duplicate to each of the wells and incubated at room temperature. The microtiter plate was washed 4 times with TBST. […] Optical density was measured at 405 nm. […]

For `O=C(O)c1ccccc1` [phenyl carboxylic acid], the “identification as phosphotyrosine mimic (inhibition of anti-phosphotyrosine antibody binding to a phosphotyrosine-containing substance)” value was “identified as a phosphotyrosine mimic”.
